Here are results for ten compounds from ChEMBL document CHEMBL1201862, “PubChem BioAssay data set” (2004).

Experiment in all cases: NCI-60 cell line screen, 48 h
Experiment [1] concerns OVCAR-8.
Experiment [2] deals with DMS-273.
The subject of experiment [3] is EKVX.
Experiment [4] relates to NCI-H522.
The subject of experiment [5] is MCF7.
For experiment [6], the system named is UO-31.
For experiment [7], the system named is SK-MEL-5.
For experiment [8], the system named is Malme-3M.
Experiment [9] relates to OVCAR-3.
Experiment [10] relates to UACC-62.
Experiment [11] deals with TK-10.
In experiment [12] the test system is HL-60.
The test system of experiment [13] is OVCAR-5.
Experiment [14] concerns K562.
The subject of experiment [15] is Hs-578T.
The subject of experiment [16] is HT-29.
Experiment [17] relates to HOP-62.
Experiment [18] relates to SNB-75.
The subject of experiment [19] is T47D.
In experiment [20] the test system is OVCAR-4.

Each structure is given as a SMILES string.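 Tested at 5 concentrations; 48 h exposure; 96-well plates; endpoints linearly interpolated, else capped at highest concentration. GI50 is the concentration that inhibits growth by half.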 Calls of active or inactive are those of the source. Cut-off read from the data, not from the text of the source: active = GI50 up to about 1.1 µM and inactive = higher.

On to `O=C1/C(=C/c2ccccc2)CN(C(=O)/C=C/c2ccccc2)C/C1=C\c1ccccc1`, for which the GI50 in experiment [1] is 4.88 µM (inactive); in experiment [2], 4.74 µM (inactive); in experiment [3] it was 24.5 µM (inactive); in experiment [4], 8.99 µM (inactive); in experiment [5] it was 1.75 µM (inactive); in experiment [6], 12.4 µM (inactive). In addition, the GI50 in experiment [7] is 8.38 µM (inactive); in experiment [8] it was 16.1 µM (inactive); in experiment [9], 7.13 µM (inactive); in experiment [10], 5.69 µM (inactive); in experiment [11], 16.1 µM (inactive); in experiment [12], 4.44 µM (inactive). The GI50 in experiment [13] is 17.6 µM (inactive); in experiment [14] it was 2.98 µM (inactive); in experiment [15] it was 4.27 µM (inactive); in experiment [16] it was 3.07 µM (inactive); in experiment [17], 23.7 µM (inactive); in [18], 13.5 µM (inactive). In addition, the results for the GI50 in experiment [19] and in [20] were 4.43 µM (inactive) and 6.85 µM (inactive), respectively.
Turning to `CC(N)C(=O)c1ccc(O)cc1` (centres undefined), the GI50 in experiment [1], in [2], in experiment [3], in experiment [4], in experiment [6] and in experiment [7] was > 100 µM (inactive) throughout. Besides, the GI50 in experiment [8], in experiment [9], in [10], in [11], in experiment [12] and in experiment [13] was > 100 µM (inactive) in each case. Also, the GI50 in [14], in [16], in [17], in experiment [18] and in experiment [20] was > 100 µM (inactive) in each case.
Consider `COC(=O)C(=O)C(C#N)c1cccc(Cl)c1` (centres undefined), for which the GI50 in experiment [1], in experiment [2], in [3], in [4], in experiment [6] and in experiment [7] was > 100 µM (inactive) each time. The GI50 in experiment [8], in experiment [9], in experiment [10], in [11], in experiment [12] and in [13] was > 100 µM (inactive) in each case. Moreover, the GI50 in experiment [14], in [16], in experiment [17], in [18] and in experiment [20] was > 100 µM (inactive) each time.
As for `CCOC(=O)c1c[nH]c2c(ccc3ncccc32)c1=O`, the GI50 in experiment [1], in experiment [2], in [3], in [4], in experiment [6] and in [7] was > 100 µM (inactive) in each case. Further, the GI50 in experiment [8], in experiment [9], in experiment [10], in experiment [11], in experiment [12] and in experiment [13] was > 100 µM (inactive) each time. The GI50 in experiment [14], in experiment [16], in experiment [17], in experiment [18] and in [20] was > 100 µM (inactive) throughout.
`COc1cc2c3c(c1OCc1ccccc1)NCCC3NCC2` (centres undefined): the GI50 in experiment [1] is > 100 µM (inactive); in [2], > 100 µM (inactive); in experiment [3], > 100 µM (inactive); in experiment [4] it was > 100 µM (inactive); in experiment [6], 51.6 µM (inactive); in [7], > 100 µM (inactive). The GI50 in experiment [8], in experiment [9], in experiment [10], in [11], in experiment [12] and in [13] was > 100 µM (inactive) in each case. Also, the GI50 in [14] is > 100 µM (inactive); in [16] it was > 100 µM (inactive); in experiment [17], > 100 µM (inactive); in experiment [18], 43.7 µM (inactive); in [20], > 100 µM (inactive).
As for `CN(C)c1nc(N(C)C)nc(N(C)CN(C)c2nc(N(C)C)nc(N(C)C)n2)n1`, the GI50 in experiment [1] was > 100 µM (inactive); in [2], > 100 µM (inactive); in experiment [3], > 100 µM (inactive); in experiment [4], 76.9 µM (inactive); in [6], > 100 µM (inactive); in experiment [7], > 100 µM (inactive). The GI50 in experiment [8], in experiment [9], in experiment [10], in experiment [11], in experiment [12] and in experiment [13] was > 100 µM (inactive) in each case. In addition, the GI50 in experiment [14], in experiment [16], in [17], in experiment [18] and in [20] was > 100 µM (inactive) each time.
As to `C[N+](C)(C)CC(=O)N/N=C(\C(=O)NC1=C(Cl)C(=O)c2ccccc2C1=O)C(C#N)c1nc(-c2ccc([N+](=O)[O-])cc2)cs1` (centres undefined), the GI50 in experiment [1] is 9.35 µM (inactive); in [2], 9.02 µM (inactive); in [3], 14.1 µM (inactive); in [4] it was 7.31 µM (inactive); in experiment [5] it was 5.41 µM (inactive); in experiment [6], 15.6 µM (inactive). Further, the GI50 in experiment [7] is 1.13 µM (inactive); in [8] it was 1.86 µM (inactive); in [9], 1.02 µM (active); in experiment [10], 3.83 µM (inactive); in experiment [11] it was 31 µM (inactive); in experiment [12], 5.73 µM (inactive). In addition, the GI50 in [13] is 13.1 µM (inactive); in experiment [14], 10.8 µM (inactive); in experiment [15] it was 7.85 µM (inactive); in experiment [16], 8.38 µM (inactive); in experiment [17], 12.7 µM (inactive); in experiment [18], 7.23 µM (inactive). Further, the GI50 in experiment [19] is 5.85 µM (inactive); in experiment [20], 10.1 µM (inactive).
Take `O=C1/C(=C/c2ccc3c(c2)OCO3)CCC1CN1CCOCC1` (centres undefined): the GI50 in [1] was 7.64 µM (inactive); in experiment [2], 8.79 µM (inactive); in experiment [3], 16.6 µM (inactive); in experiment [4], 1.04 µM (active); in experiment [5] it was 2.1 µM (inactive); in experiment [6], 15.8 µM (inactive). Further, the GI50 in [7] was 9.16 µM (inactive); in experiment [8], 7.31 µM (inactive); in [9] it was 7.93 µM (inactive); in experiment [10], 9.16 µM (inactive); in experiment [11], 12.4 µM (inactive); in [12], 1.44 µM (inactive). For the same compound, the GI50 in experiment [13] was 14 µM (inactive); in [14], 2.03 µM (inactive); in [15], 3.84 µM (inactive); in [16], 5.77 µM (inactive); in experiment [17], 16.3 µM (inactive); in experiment [18], 14.6 µM (inactive). Moreover, the GI50 in experiment [19] was 3.98 µM (inactive); in experiment [20], 6.73 µM (inactive).
As for `O[C@]12CCCC[C@H]1CCC2`, the GI50 in experiment [1], in experiment [2], in [3], in [4], in [6] and in experiment [7] was > 100 µM (inactive) in each case. For the same compound, the GI50 in experiment [8], in experiment [9], in experiment [10], in [11], in experiment [12] and in experiment [13] was > 100 µM (inactive) throughout. The GI50 in experiment [14], in experiment [16], in experiment [17], in [18] and in [20] was > 100 µM (inactive) each time.
Consider `CC1=C(N(C)C)C(=O)c2nc3n(c2C1=O)CCC3OC(N)=O` (centres undefined), for which the GI50 in [1] was 16.7 µM (inactive); in experiment [2], 15.8 µM (inactive); in [3], 20.5 µM (inactive); in experiment [4] it was 15.2 µM (inactive); in experiment [6], 17.3 µM (inactive); in experiment [7] it was 11.5 µM (inactive). In addition, the GI50 in experiment [8] was 11.2 µM (inactive); in experiment [9], 16.8 µM (inactive); in experiment [10], 5.58 µM (inactive); in experiment [11], 18.2 µM (inactive); in experiment [12], 10.4 µM (inactive); in [13], 19.6 µM (inactive). Further, the GI50 in [14] was 18.5 µM (inactive); in [16] it was 19.7 µM (inactive); in [17], 17.6 µM (inactive); in [18] it was 23.7 µM (inactive); in experiment [20], 19.9 µM (inactive).
